# Data published in patent publication US7947869B2, “Methods for inducing cotton embryogenic callus” (Monsanto Technology LLC, priority 2007, dated 2011).
# Assays:
# Assay type in all cases: cell-based, cotton (cv. Coker 130)
# [1] = test system: cotton hypocotyl explants; experiment: Effect of ACC during callus induction or embryogenic callus induction step
# Experimental: An ethylene precursor, 1-aminocyclopropane-1-carboxylic acid (ACC) was added at the step of undifferentiated callus formation, and removed prior to embryogenesis, to speed up embryogenic callus formation.
# Three studies were performed to define the effect of ACC on enhancing embryogenic callus formation. In the first experiment summarized in Table 19, hypocotyl explants were placed on UMSEL medium containing different concentrations of ACC (Treatments 2-6), or containing no ACC (treatment 7). The plates were unwrapped and placed in two separate boxes (Treatments 2-6 in one box and Treatments 7-12 in another), and cultured at 28° C. with a photoperiod of 16 hr light/8 hr darkness. After four weeks of callus induction, the calli were transferred to UMO medium without ACC (Treatments 2-6), or to UMO plus different concentrations of ACC (Treatments 8-12) for embryogenic callus induction. The plates were wrapped with PARAFILM at this stage.
# [2] = test system: Agrobacterium-inoculated cotton hypocotyl explants; experiment: Effect of ACC on embryogenic callus from transformed tissue (pMON15722, kanamycin selection)
# Experimental: Addition of ACC produced a similar enhancing effect on producing embryogenic callus from transformed tissue. The hypocotyl explants were inoculated with Agrobacterium containing a plant transformation vector pMON15722 having an expression unit conferring kanamycin tolerance. The explants were pre-soaked in 2-hr in MSO glucose medium (Table 3) before inoculation. After 2 days of co-culture at about 24° C., the inoculated hypocotyl pieces were placed on WPSEL medium containing 45 mg/L of kanamycin for 4 weeks for callus induction. After callus induction, the explants were again transferred to WPSEL medium for another 4 weeks. Different concentrations of ACC were incorporated in the medium at this step.
# [3] = test system: embryogenic cotton callus; experiment: Effect of brassinolide on embryo production at 9% and 21% O2 levels
# Experimental: When embryogenic callus was placed on brassinolide containing TRP+ medium (Table 9) at either 9% or 21% O2, more embryos were produced in the brassinolide treatments at 9% than at 21% O2. Lower level of 10 μM brassinolide gave the greatest response at 9% O2 but 100 μM level of brassinolide was more useful in 21% O2. […] Different levels of O2 were created by using a PRO-OX 110 oxygen control according to manufacturer's instructions (BioSpherix, Redfield, N.Y.) in a growth chamber (e.g. Percival Scientific, Inc., Perry, Iowa). Results in Table 12 indicate that brassinolide promotes the growth and development of embryos from cotton embryogenic callus.
# [4] = test system: embryogenic cotton callus; experiment: Effect of brassinolide in TRP+ medium on production of embryos from embryogenic cotton callus
# Experimental: A brassinosteroid plant growth regulator was used to enhance cotton embryo formation. Brassinolide (i.e. 24-epibrassinolide; Super-Grow, Montreal, Calif.), at a concentration from 2 to 100 μM was added to TRP+ medium (Table 9). Embryogenic callus from the UMO medium (Table 8) was then cultured on TRP+ medium containing Brassinolide. […] Besides an increase in the overall production of embryos, many of the embryos produced from the brassinolide treatment were 5-6 mm long heart shaped embryos (more developed), whereas there were none at this stage in the control treatment. […]
# [5] = ACC 0.01 mM at callus induction step (UMSEL), removed on UMO
# [6] = ACC 0.1 mM at callus induction step (UMSEL)
# [7] = ACC 0.5 mM at callus induction step (UMSEL)
# [8] = ACC 1 mM at callus induction step (UMSEL)
# [9] = ACC 5 mM at callus induction step (UMSEL)
# [10] = 2 μM brassinolide in TRP+ medium
# [11] = 5 μM brassinolide in TRP+ medium
# [12] = 10 μM brassinolide in TRP+ medium
# [13] = 15 μM brassinolide in TRP+ medium
compound,measurement,setting,value
"NC1(C(=O)O)CC1 [ACC, 1-aminocyclopropane-1-carboxylic acid]",% EC at 7 week,[1]; [5],80%
same,% EC at 9 week,[1]; [5],94%
same,% EC at 9 week,[1]; ACC 0.01 mM at embryogenic callus induction step (UMO),35%
same,% EC at 7 week,[1]; [6],50%
same,% EC at 9 week,[1]; [6],90%
same,% EC at 9 week,[1]; ACC 0.1 mM at embryogenic callus induction step (UMO),5%
same,% EC at 7 week,[1]; [7],58%
same,% EC at 9 week,[1]; [7],88%
same,% EC at 9 week,[1]; ACC 0.5 mM at embryogenic callus induction step (UMO),10%
same,% EC at 7 week,[1]; [8],28%
same,% EC at 9 week,[1]; [8],62%
same,% EC at 9 week,[1]; ACC 1 mM at embryogenic callus induction step (UMO),10%
same,% EC at 9 week,[1]; ACC 3 mM at embryogenic callus induction step (UMO),0%
same,% EC at 7 week,[1]; [9],0%
same,% EC at 9 week,[1]; [9],0%
same,% Pieces w/ EC after 6 weeks on UMO medium with Kanamycin,[2]; ACC 10 μM during non-embryogenic callus growth on WPSEL,18.4%
same,% Pieces w/ EC after 6 weeks on UMO medium with Kanamycin,[2]; ACC 30 μM during non-embryogenic callus growth on WPSEL,22.1%
same,% Pieces w/ EC after 6 weeks on UMO medium with Kanamycin,[2]; ACC 60 μM during non-embryogenic callus growth on WPSEL,21.6%
same,% Pieces w/ EC after 6 weeks on UMO medium with Kanamycin,[2]; ACC 100 μM during non-embryogenic callus growth on WPSEL,26.5%
same,% Pieces w/ EC after 6 weeks on UMO medium with Kanamycin,[2]; ACC 150 μM during non-embryogenic callus growth on WPSEL,44.0%
"CC(C)[C@@H](C)[C@@H](O)[C@H](O)[C@@H](C)[C@H]1CC[C@H]2[C@@H]3COC(=O)[C@H]4C[C@H](O)[C@H](O)C[C@]4(C)[C@H]3CC[C@]12C [Brassinolide, 24-epibrassinolide]",Number of Embryos Produced,"[3]; 10 μM brassinolide, 9% O2, 4 weeks",18
same,Number of Embryos Produced,"[3]; 10 μM brassinolide, 9% O2, 7 weeks",30
same,Number of Embryos Produced,"[3]; 10 μM brassinolide, 9% O2, 9 weeks",48
same,Number of Embryos Produced,"[3]; 10 μM brassinolide, 21% O2, 4 weeks",21
same,Number of Embryos Produced,"[3]; 10 μM brassinolide, 21% O2, 7 weeks",28
same,Number of Embryos Produced,"[3]; 10 μM brassinolide, 21% O2, 9 weeks",21
same,Number of Embryos Produced,"[3]; 50 μM brassinolide, 9% O2, 4 weeks",8
same,Number of Embryos Produced,"[3]; 50 μM brassinolide, 9% O2, 7 weeks",12
same,Number of Embryos Produced,"[3]; 50 μM brassinolide, 9% O2, 9 weeks",35
same,Number of Embryos Produced,"[3]; 50 μM brassinolide, 21% O2, 4 weeks",10
same,Number of Embryos Produced,"[3]; 50 μM brassinolide, 21% O2, 7 weeks",8
same,Number of Embryos Produced,"[3]; 50 μM brassinolide, 21% O2, 9 weeks",11
same,Number of Embryos Produced,"[3]; 100 μM brassinolide, 9% O2, 4 weeks",1
same,Number of Embryos Produced,"[3]; 100 μM brassinolide, 9% O2, 7 weeks",9
same,Number of Embryos Produced,"[3]; 100 μM brassinolide, 9% O2, 9 weeks",21
same,Number of Embryos Produced,"[3]; 100 μM brassinolide, 21% O2, 4 weeks",6
same,Number of Embryos Produced,"[3]; 100 μM brassinolide, 21% O2, 7 weeks",9
same,Number of Embryos Produced,"[3]; 100 μM brassinolide, 21% O2, 9 weeks",33
same,Brassinolide level giving the greatest response,[3]; 9% O2,10 µM
same,Brassinolide level more useful,[3]; 21% O2,100 µM
same,Embryo stages: 2-3 mm globules,[4]; [10],3
same,Embryo stages: 5-6 mm heart shaped,[4]; [10],0
same,Total embryos,[4]; [10],3
same,Embryo stages: 2-3 mm globules,[4]; [11],10
same,Embryo stages: 5-6 mm heart shaped,[4]; [11],8
same,Total embryos,[4]; [11],18
same,Embryo stages: 2-3 mm globules,[4]; [12],6
same,Embryo stages: 5-6 mm heart shaped,[4]; [12],11
same,Total embryos,[4]; [12],17
same,Embryo stages: 2-3 mm globules,[4]; [13],6
same,Embryo stages: 5-6 mm heart shaped,[4]; [13],9
same,Total embryos,[4]; [13],15
